Test results reported in patent US20260077071A1, “Targeted Delivery of Theranostic Agents” (Peter MacCallum Cancer Institute, priority 2022, published 2026).
Read-outs that look alike come from different tables or passages of the source. Square brackets hold non-standard residues; d marks the D form. Peptide text beside a SMILES is read from it. * marks the point of attachment. DOTA = O=C(O)CN1CCN(CC(=O)O)CCN(CC(=O)*)CCN(CC(=O)O)CC1; Phe(3,4,5-F3) = N[C@@H](Cc1cc(F)c(F)c(F)c1)C(=O)O; Phe(3,4-F2) = N[C@@H](Cc1ccc(F)c(F)c1)C(=O)O; NMe1Nal = CN[C@@H](Cc1cccc2ccccc12)C(=O)O; Phe(4-CN) = N#Cc1ccc(C[C@H](N)C(=O)O)cc1; Phe(4-NH2) = Nc1ccc(C[C@H](N)C(=O)O)cc1; 1Nal = N[C@@H](Cc1cccc2ccccc12)C(=O)O; 2Nal = N[C@@H](Cc1ccc2ccccc2c1)C(=O)O; NMeNle = CCCC[C@H](NC)C(=O)O; Sar = CNCC(=O)O

Molecular target: T1, human full-length CCK-2 receptor (Homo sapiens, UniProt P32239)
T1 construct: stably transfected to over-express the human full-length CCK-2 receptor (A431-CCK-2R); expressed in transfected cells
T1 sequence (P32239 1-447): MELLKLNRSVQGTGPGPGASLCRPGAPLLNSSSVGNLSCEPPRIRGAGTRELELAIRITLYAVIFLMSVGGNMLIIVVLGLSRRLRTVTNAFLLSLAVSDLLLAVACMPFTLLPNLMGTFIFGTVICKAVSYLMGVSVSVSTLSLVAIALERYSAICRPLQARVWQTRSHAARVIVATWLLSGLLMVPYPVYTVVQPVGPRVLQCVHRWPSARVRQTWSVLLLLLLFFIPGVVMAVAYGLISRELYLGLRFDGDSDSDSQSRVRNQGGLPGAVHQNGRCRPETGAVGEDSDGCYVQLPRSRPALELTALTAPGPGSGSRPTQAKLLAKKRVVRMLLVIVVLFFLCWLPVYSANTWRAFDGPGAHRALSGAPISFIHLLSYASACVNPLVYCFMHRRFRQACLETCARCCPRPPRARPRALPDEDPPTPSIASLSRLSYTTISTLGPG
Experiment: Competitive ligand binding against [^177Lu]Lu-DOTA-CP04 in A431-CCK-2R cells
Conditions: for IC50: read-out: IC50; for loss of binding affinity / activity: D-Ala analogue versus baseline comparative example-1
Method: CCK-2 receptor binding experiments were conducted using A431 (human epidermoid carcinoma) cells stably transfected to over-express the human full-length CCK-2 receptor (A431-CCK-2R). As a negative control, A431 cells stably transfected with an empty vector were analysed simultaneously (A431-EV). A431 cells were maintained in DMEM (Gibco, Australia) media supplemented with 10% foetal calf serum and 250 μg/mL G418 as described previously (Aloj L, et al., J Nucl Med., 2004, Mar; 45(3), 485-94). The affinity of peptides for the CCK-2R was evaluated using competitive binding assays against [^177Lu]Lu-DOTA-CP04 in A431-CCK-2R cells. Briefly, 48 h before the experiment cells were plated at a density of 650,000 cells per well in 6 well plates. On the day of the experiment the peptides were diluted in DMEM supplemented with 1% foetal calf serum to at least 7 different concentrations (0-400 nM) and approximately 50,000 cpm of [^177Lu]Lu-DOTA-CP04 was added to each dilution. Cells were washed twice in ice-cold binding buffer (DMEM supplemented with 1% foetal calf serum) and resuspended in 1.5 mL of the pre-prepared compound mix before being incubated at 37° C. for 1 h. Post-incubation the media was removed and kept for analysis (unbound fraction) and the cells were washed twice in ice-cold binding buffer, which was pooled with the unbound fraction. Finally, 1 M NaOH was added to the cells and allowed to incubate for 5 min before lysates were collected (bound fraction). A small volume of lysate was kept aside to determine protein concentration using the Pierce® BCA protein assay kit (Thermo Fisher, Australia). All samples were analysed using the Perkin Elmer 2480 Wizard2™ gamma counter (PerkinElmer, Massachusetts, USA) and were normalised according to protein concentration. Half-maximal inhibitory concentrations (IC50) were determined using nonlinear regression calculated using GraphPad Prism Software (GraphPad Software, California, USA).
The compounds were evaluated for their ability to disrupt the binding between CCK-2 receptor (CCK-2R) and [^177Lu]Lu-DOTA-CP04 using the methodology described above and compared to comparative example-2 (FIG. 2; Table 5).

[1] = substituted-phenylalanine peptides based on Cmp ex-1 (Table 3)
[2] = ^natGa chelated DOTA-compounds based on Peptide C (Table 5)
[3] = modified peptides based on Peptide C (Table 4)

CCCC[C@@H](C(=O)N[C@@H](CC(=O)O)C(=O)N[C@@H](Cc1ccc(F)c(F)c1)C(N)=O)N(C)C(=O)[C@H](Cc1c[nH]c2ccccc12)NC(=O)CN(C)C(=O)[C@H](Cc1ccc(O)cc1)NC(=O)[C@H](C)NC(=O)[C@@H](CCC(=O)O)NC(=O)[C@@H](CCC(=O)O)NC(=O)[C@@H](CCC(=O)O)NC(=O)[C@@H](CCC(=O)O)NC(=O)[C@@H](CCC(=O)O)NC(=O)[C@H](N)CCC(=O)O [H] (H-[dE][dE][dE][dE][dE][dE]AY[Sar]W[NMeNle]D[Phe(3,4-F2)]-NH2)
IC50 [1]: 0.64 nM

CCCC[C@@H](C(=O)N[C@@H](CC(=O)O)C(=O)N[C@@H](Cc1ccc(N)cc1)C(N)=O)N(C)C(=O)[C@H](Cc1c[nH]c2ccccc12)NC(=O)CN(C)C(=O)[C@H](Cc1ccc(O)cc1)NC(=O)[C@H](C)NC(=O)[C@@H](CCC(=O)O)NC(=O)[C@@H](CCC(=O)O)NC(=O)[C@@H](CCC(=O)O)NC(=O)[C@@H](CCC(=O)O)NC(=O)[C@@H](CCC(=O)O)NC(=O)[C@H](N)CCC(=O)O [K] (H-[dE][dE][dE][dE][dE][dE]AY[Sar]W[NMeNle]D[Phe(4-NH2)]-NH2; N-terminus assumed)
IC50 [1]: 0.52 nM

CCCC[C@@H](C(=O)N[C@@H](CC(=O)O)C(=O)N[C@@H](Cc1cccc2ccccc12)C(N)=O)N(C)C(=O)[C@H](Cc1c[nH]c2ccccc12)NC(=O)CN(C)C(=O)[C@H](Cc1ccc(O)cc1)NC(=O)[C@H](C)NC(=O)[C@@H](CCC(=O)O)NC(=O)[C@@H](CCC(=O)O)NC(=O)[C@@H](CCC(=O)O)NC(=O)[C@@H](C)NC(=O)[C@@H](CCC(=O)O)NC(=O)[C@@H](CCC(=O)O)NC(=O)CN1CCN(CC(=O)O)CCN(CC(=O)O)CCN(CC(=O)O)CC1 [^natGa-1, metal not drawn] ({DOTA}-[dE][dE][dA][dE][dE][dE]AY[Sar]W[NMeNle]D[1Nal]-NH2)
IC50 [2]: 0.08 nM

CCCC[C@@H](C(=O)N[C@@H](CC(=O)O)C(=O)N(C)[C@@H](Cc1cccc2ccccc12)C(N)=O)N(C)C(=O)[C@H](Cc1c[nH]c2ccccc12)NC(=O)CN(C)C(=O)[C@H](Cc1ccc(O)cc1)NC(=O)[C@H](C)NC(=O)[C@@H](CCC(=O)O)NC(=O)[C@@H](CCC(=O)O)NC(=O)[C@@H](CCC(=O)O)NC(=O)[C@@H](CCC(=O)O)NC(=O)[C@@H](CCC(=O)O)NC(=O)[C@@H](CCC(=O)O)NC(=O)CN1CCN(CC(=O)O)CCN(CC(=O)O)CCN(CC(=O)O)CC1 [^natGa-Cmp ex-2, metal not drawn, reference compound] ({DOTA}-[dE][dE][dE][dE][dE][dE]AY[Sar]W[NMeNle]D[NMe1Nal]-NH2)
IC50 [2]: 0.158 nM

CCCC[C@@H](C(=O)N[C@@H](CC(=O)O)C(=O)N[C@@H](Cc1cc(F)c(F)c(F)c1)C(N)=O)N(C)C(=O)[C@H](Cc1c[nH]c2ccccc12)NC(=O)CN(C)C(=O)[C@H](Cc1ccc(O)cc1)NC(=O)[C@H](C)NC(=O)[C@@H](CCC(=O)O)NC(=O)[C@@H](CCC(=O)O)NC(=O)[C@@H](CCC(=O)O)NC(=O)[C@@H](CCC(=O)O)NC(=O)[C@@H](CCC(=O)O)NC(=O)[C@H](N)CCC(=O)O [I] (H-[dE][dE][dE][dE][dE][dE]AY[Sar]W[NMeNle]D[Phe(3,4,5-F3)]-NH2)
IC50 [1]: 0.26 nM

CCCC[C@@H](C(=O)N[C@@H](CC(=O)O)C(=O)N[C@@H](Cc1ccc(O)cc1)C(N)=O)N(C)C(=O)[C@H](Cc1c[nH]c2ccccc12)NC(=O)CN(C)C(=O)[C@H](Cc1ccc(O)cc1)NC(=O)[C@H](C)NC(=O)[C@@H](CCC(=O)O)NC(=O)[C@@H](CCC(=O)O)NC(=O)[C@@H](CCC(=O)O)NC(=O)[C@@H](C)NC(=O)[C@@H](CCC(=O)O)NC(=O)[C@H](N)CCC(=O)O [Peptide R] (H-[dE][dE][dA][dE][dE][dE]AY[Sar]W[NMeNle]DY-NH2; N-terminus assumed)
IC50 [3]: 1.15 ± 0.096 nM

CCCC[C@@H](C(=O)N[C@@H](CC(=O)O)C(=O)N[C@@H](Cc1ccc2ccccc2c1)C(N)=O)N(C)C(=O)[C@H](Cc1c[nH]c2ccccc12)NC(=O)CN(C)C(=O)[C@H](Cc1ccc(O)cc1)NC(=O)[C@H](C)NC(=O)[C@@H](CCC(=O)O)NC(=O)[C@@H](CCC(=O)O)NC(=O)[C@@H](CCC(=O)O)NC(=O)[C@@H](CCC(=O)O)NC(=O)[C@@H](CCC(=O)O)NC(=O)[C@H](N)CCC(=O)O [L] (H-[dE][dE][dE][dE][dE][dE]AY[Sar]W[NMeNle]D[2Nal]-NH2; N-terminus assumed)
IC50 [1]: 0.6 nM

CCCC[C@@H](C(=O)N[C@@H](CC(=O)O)C(=O)N[C@@H](Cc1ccc(C#N)cc1)C(N)=O)N(C)C(=O)[C@H](Cc1c[nH]c2ccccc12)NC(=O)CN(C)C(=O)[C@H](Cc1ccc(O)cc1)NC(=O)[C@H](C)NC(=O)[C@@H](CCC(=O)O)NC(=O)[C@@H](CCC(=O)O)NC(=O)[C@@H](CCC(=O)O)NC(=O)[C@@H](C)NC(=O)[C@@H](CCC(=O)O)NC(=O)[C@H](N)CCC(=O)O [Q] (H-[dE][dE][dA][dE][dE][dE]AY[Sar]W[NMeNle]D[Phe(4-CN)]-NH2; N-terminus assumed)
IC50 [3]: 1.57 ± 0.089 nM

CCCC[C@@H](C(=O)N[C@@H](CC(=O)O)C(=O)N(C)[C@@H](Cc1cccc2ccccc12)C(N)=O)N(C)C(=O)[C@H](Cc1c[nH]c2ccccc12)NC(=O)CN(C)C(=O)[C@H](Cc1ccc(O)cc1)NC(=O)[C@H](C)NC(=O)[C@@H](CCC(=O)O)NC(=O)[C@@H](CCC(=O)O)NC(=O)[C@@H](CCC(=O)O)NC(=O)[C@@H](C)NC(=O)[C@@H](CCC(=O)O)NC(=O)[C@@H](CCC(=O)O)NC(=O)CN1CCN(CC(=O)O)CCN(CC(=O)O)CCN(CC(=O)O)CC1 [^natGa-4, metal not drawn] ({DOTA}-[dE][dE][dA][dE][dE][dE]AY[Sar]W[NMeNle]D[NMe1Nal]-NH2)
IC50 [2]: 0.096 nM

CCCC[C@@H](C(=O)N[C@@H](CC(=O)O)C(=O)N[C@@H](Cc1cccc2ccccc12)C(N)=O)N(C)C(=O)[C@H](Cc1c[nH]c2ccccc12)NC(=O)CN(C)C(=O)[C@H](Cc1ccc(O)cc1)NC(=O)[C@H](C)NC(=O)[C@@H](CCC(=O)O)NC(=O)[C@@H](CCC(=O)O)NC(=O)[C@@H](CCC(=O)O)NC(=O)[C@@H](C)NC(=O)[C@@H](CCC(=O)O)NC(=O)[C@H](N)CCC(=O)O [Peptide C] (H-[dE][dE][dA][dE][dE][dE]AY[Sar]W[NMeNle]D[1Nal]-NH2)
IC50 (D-Ala substituted peptides (Table 2), against [^177Lu]Lu-DOTA-CP04 in A431-CCK-2R cells): 0.18 nM
improvement upon the activity of CP04 (versus CP04): greater than 10 fold
affinity exceeding that of the comparative peptide (versus comparative example-1): ~2 fold

CCCC[C@@H](C(=O)N[C@@H](CC(=O)O)C(=O)N[C@@H](Cc1cccc2ccccc12)C(N)=O)N(C)C(=O)[C@H](Cc1c[nH]c2ccccc12)NC(=O)CN(C)C(=O)[C@H](Cc1ccc(O)cc1)NC(=O)[C@H](C)NC(=O)[C@@H](CCC(=O)O)NC(=O)[C@@H](CCC(=O)O)NC(=O)[C@@H](CCC(=O)O)NC(=O)[C@@H](CCC(=O)O)NC(=O)[C@@H](CCC(=O)O)NC(=O)[C@@H](C)N [Peptide A] (H-[dA][dE][dE][dE][dE][dE]AY[Sar]W[NMeNle]D[1Nal]-NH2)
loss of binding affinity / activity: greater than 10 fold

CCCC[C@@H](C(=O)N[C@@H](CC(=O)O)C(=O)N[C@@H](Cc1cccc2ccccc12)C(N)=O)N(C)C(=O)[C@H](Cc1c[nH]c2ccccc12)NC(=O)CN(C)C(=O)[C@H](Cc1ccc(O)cc1)NC(=O)[C@H](C)NC(=O)[C@@H](CCC(=O)O)NC(=O)[C@@H](C)NC(=O)[C@@H](CCC(=O)O)NC(=O)[C@@H](CCC(=O)O)NC(=O)[C@@H](CCC(=O)O)NC(=O)[C@H](N)CCC(=O)O [E] (H-[dE][dE][dE][dE][dA][dE]AY[Sar]W[NMeNle]D[1Nal]-NH2)
loss of binding affinity / activity: equivalent loss of activity
